# Laboratory results as given in patent US4230708A (priority 1977, dated 1980).
# Like-named read-outs stand apart in the source and are kept apart here.
# Tests used:
# [1] = system: VSV, vaccinia and herpes simplex-1 (KOS); format: cell-based, vaccinia and herpes simplex-1 (KOS) viruses; details: for Antiviral activity of congeners: at 100 μg/ml (the highest level tested), PRK cells; for Antiviral activity of enantiomers and racemate: VSV/PRK, vaccinia/PRK, herpes simplex-1 (KOS)/PRK
# [2] = Stability; format: physicochemical
# [3] = system: Vaccinia; test: microbe, parasite or virus in culture; format: cell-based; details: Orthopoxvirus vaccinia, read-out: ID50
# [4] = Acute toxicity in mice; format: in vivo
# [5] = system: Polio-1; test: microbe, parasite or virus in culture; format: cell-based, polio virus type 1; details: read-out: ID50
# [6] = system: Measles; test: microbe, parasite or virus in culture; format: cell-based; details: Measles morbillivirus, Vero; read-out: ID50 (the source's name)
# [7] = system: Vesicular stomatitis; test: microbe, parasite or virus in culture; format: cell-based; details: read-out: ID50
# [8] = system: vaccinia virus; format: cell-based; details: for Virus yield: (S)-DHPA 30 μg/ml, ara-A 3 μg/ml, or both
# [9] = system: Sindbis; test: microbe, parasite or virus in culture; format: cell-based; details: BHK, read-out: ID50 (the source's name)
# [10] = system: Coxsackie B-4; format: cell-based, Coxsackie B-4 virus; details: HeLa cells; 100 CCID50; read-out: ID50 (the source's name)
# Description: The antiviral activity of (S)-DHPA was explored in a variety of cell cultures and with a variety of DNA and RNA viruses such as listed in Table 1. The cells of each cell culture were inoculated with a certain virus in a dose of about 100 CCID50, that is about 100 times the dose needed to infect 50% of the cells. One hour after inoculation, (S)-DHPA was added in varying doses from zero to 40 μg/ml and sometimes to more than 200 μg/ml. For each virus-cell system, the ID50 of (S)-DHPA, that is the dose of (S)-DHPA needed to suppress the cytopathic effect of the virus by 50%, was determined. This cytopathic effect (CPE) was measured in the untreated virus-infected cell cultures [(S)-DHPA dose 0] and recorded as soon as it reached completion (according to the method described by L. J. Rosenthal and I. L. Shechmaister, in "Tissue Culture", page 510, Academic Press, New York, 1973).
# [11] = biological target: adenosine deaminase (Bos taurus, UniProt P56658); test: Deamination of ara-A by adenosine deaminase of calf intestinal mucosa (FIG. 3, FIG. 4); format: biochemical; details: for Decrease in absorbance at 265 nm (extent of deamination): FIG. 3A
# Description: FIG. 3 is a graphical representation showing the inhibitory effect of (S)-DHPA on deamination of ara-A by adenosine deaminase of calf intestinal mucosa. Deamination of ara-A was measured according to the method of Kalckar (compare J. Biol. Chem., 167, 461, […]), modified by Trams and Lauter (compare Biochem. J., 152, 681, 1975). The extent of deamination is equivalent to the decrease of absorbance at λ (wavelength)=265 nm. The decrease in absorbance at 265 nm was 0.11 if 50 nmol of ara-A were used, and was 0.16 if 100 nmol of ara-A were used (FIG. 3A).
# [12] = system: vesicular stomatitis virus; test: microbe, parasite or virus in culture; format: cell-based; details: HSF, read-out: Decrease of virus titer compared with control
# [13] = system: vesicular stomatitis virus; format: in vivo, NMRI mice; details: for Final number of surviving mice: control 37.5%
# [14] = system: DNA viruses; RNA viruses; details: known from literature; cited from earlier work
# [15] = cited from earlier work
# [16] = 1 day after infection, control 3.6
# [17] = 2 days after infection, control 5.0
# [18] = 3 days after infection, control 5.3
# [19] = repeated doses of 0.4 mg/mouse (about 27 mg/kg)
# Sequence of adenosine deaminase (P56658 whole entry): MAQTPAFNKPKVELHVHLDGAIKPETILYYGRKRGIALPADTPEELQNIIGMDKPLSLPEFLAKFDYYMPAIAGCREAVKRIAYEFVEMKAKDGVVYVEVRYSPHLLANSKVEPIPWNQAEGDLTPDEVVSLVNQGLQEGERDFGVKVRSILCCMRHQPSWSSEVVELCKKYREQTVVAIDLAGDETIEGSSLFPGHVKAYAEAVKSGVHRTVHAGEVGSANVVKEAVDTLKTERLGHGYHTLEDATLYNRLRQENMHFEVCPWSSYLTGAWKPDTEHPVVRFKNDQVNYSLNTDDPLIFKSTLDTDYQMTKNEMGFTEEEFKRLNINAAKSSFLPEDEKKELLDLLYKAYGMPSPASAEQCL
smiles,measurement,setting,value
Nc1ncnc2c1ncn2CC(N)C(=O)O (racemic) [9-(β-DL-alanyl)-adenine],Antiviral activity of congeners,[1],did not demonstrate an antiviral activity
"Nc1ncnc2c1ncn2CC(O)CO (racemic) [(RS)-DHPA, (RS)-9-(2,3-dihydroxypropyl)adenine]",Antiviral activity of enantiomers and racemate,[1],almost as effective as the (S)-enantiomer
same,Antiviral activity of enantiomers and racemate,[1]; listed as RS-form,almost as effective as the S-form
same,Stability in pure form,[2],practically unlimited
same,"Stability (thermic sterilization of neutral, weakly acid or weakly alkaline solutions possible)",[2],remarkable stability
"O=c1ccn(CCC(O)CCO)c(=O)[nH]1 (racemic) [RS-1-(3,5-dihydroxypentyl)uracil]",Antiviral activity of congeners,[1],did not demonstrate an antiviral activity
CC(O)Cn1cnc2c(N)ncnc21 (racemic) [RS-9-(2-hydroxypropyl)adenine],Antiviral activity of congeners,[1],did not demonstrate an antiviral activity
"Nc1ncnc2c1ncn2CCC(O)CO (racemic) [RS-9-(3,4-dihydroxybutyl)-adenine]",Antiviral activity of congeners,[1],did not demonstrate an antiviral activity
"Nc1ncnc2c1ncn2CCC(O)CCO (racemic) [RS-9-(3,5-dihydroxypentyl)adenine]",Antiviral activity of congeners,[1],did not demonstrate an antiviral activity
"Nc1ncnc2c1ncn2C[C@H](O)[C@@H](O)CO (relative stereo) [RS-threo-9-(2,3,4-trihydroxybutyl)adenine]",Antiviral activity of congeners,[1],did not demonstrate an antiviral activity
"Nc1ncnc2c1ncn2C(CO)CO [2-(9-adeninyl)propane-1,3-diol]",Antiviral activity of congeners,[1],did not demonstrate an antiviral activity
NCCn1cnc2c(N)ncnc21 [9-(2-aminoethyl)adenine],Antiviral activity of congeners,[1],did not demonstrate an antiviral activity
Nc1ncnc2c1ncn2CCO [9-(2-hydroxyethyl)adenine],Antiviral activity of congeners,[1],did not demonstrate an antiviral activity
Nc1ncnc2c1ncn2CCCO [9-(3-hydroxypropyl)adenine],Antiviral activity of congeners,[1],did not demonstrate an antiviral activity
Nc1ncnc2c1ncn2C[C@@H](O)CO [(R)-DHPA],Antiviral activity of enantiomers and racemate,[1]; listed as R-enantiomeric form,not
"Nc1ncnc2c1ncn2C[C@H](O)CO [(S)-DHPA, (S)-9-(2,3-dihydroxypropyl)adenine]",EC50,[3]; Skin fibroblast,10 to 20 µg/mL
same,EC50,[3]; in Oryctolagus cuniculus,10 to 20 µg/mL
same,Survival in acute toxicity test (LD50 could not be determined),[4]; doses up to 1000 mg/kg/day for 3 to 5 days,all mice survived (without any sign of illness)
same,Acute toxicity,[4]; general statement,very low acute toxicity
same,EC50,[5]; HSF,> 200 µg/mL
same,EC50,[5]; HeLa,> 200 µg/mL
same,Antiviral activity of enantiomers and racemate,[1],active
same,EC50,[6],4 to 40 µg/mL
same,EC50,[7]; HSF,2 to 7 µg/mL
same,EC50,[7]; HeLa,> 200 µg/mL
same,EC50,[7]; PRK,7 to 10 µg/mL
same,Virus yield,[8]; [16],3.6 log10 PFU/ml
same,Virus yield,[8]; [17],4.9 log10 PFU/ml
same,Virus yield,[8]; [18],5.4 log10 PFU/ml
same,Potentiation of antiviral activity of ara-A,"[8]; PRK cells, vaccinia virus",markedly potentiated the antiviral activity of ara-A
same,EC50,[9],> 200 µg/mL
same,EC50,[10],> 200 µg/mL
same,Concentration dependence of inhibition of ara-A deamination,[11]; absorbance decrease at 265 nm,inhibited proportionally to the concentration of (S)-DHPA
same,Inhibition of deamination of ara-A,[11]; adenosine deaminase extracted from calf intestinal mucosa,strongly inhibited
same,log reduction at 100 µg/mL,[12]; 24 h,~4
same,log reduction at 100 µg/mL,[12]; 48 h,~4
same,Final number of surviving mice,"[13]; 2 mg/mouse (about 133 mg/kg) i.p. at 1 h and 1, 2, 3, 4 days",67%
same,Increase in final number of surviving mice vs control,"[13]; 2 mg/mouse i.p., repeated",significant increase
same,Difference in number of survivors at 9 days vs control,"[13]; 2 mg/mouse i.p., repeated, 9 days after infection",significant
same,Protection,[13]; repeated doses of 0.08 mg/mouse (about 5.4 mg/kg),did not confer protection
same,Protection,[13]; [19],slight protection
same,Final number of surviving mice,[13]; [19],55%
same,Stability in pure form,[2],practically unlimited
same,"Stability (thermic sterilization of neutral, weakly acid or weakly alkaline solutions possible)",[2],remarkable stability
"Cc1cn(C[C@@H](O)CO)c(=O)[nH]c1=O [R-1-(2,3-dihydroxypropyl)-thymine]",Antiviral activity of congeners,[1],did not demonstrate an antiviral activity
"Cc1cn(C[C@H](O)CO)c(=O)[nH]c1=O [S-1-(2,3-dihydroxypropyl)thymine]",Antiviral activity of congeners,[1],did not demonstrate an antiviral activity
"O=c1ccn(C[C@H](O)CO)c(=O)[nH]1 [S-1-(2,3-dihydroxypropyl)uracil]",Antiviral activity of congeners,[1],did not demonstrate an antiviral activity
"O=c1ccn(CC[C@H](O)CO)c(=O)[nH]1 [S-1-(3,4-dihydroxybutyl)-racil]",Antiviral activity of congeners,[1],did not demonstrate an antiviral activity
"Cc1c[nH]c(=O)n(C[C@H](O)CO)c1=O [S-3-(2,3-dihydroxypropyl)thymine]",Antiviral activity of congeners,[1],did not demonstrate an antiviral activity
"O=c1[nH]cnc2c1ncn2C[C@H](O)CO [S-9-(2,3-dihydroxypropyl)hypoxanthine]",Antiviral activity of congeners,[1],did not demonstrate an antiviral activity
"Nc1ncnc2c1ncn2CC[C@H](O)CO [S-9-(3,4-dihydroxybutyl)adenine]",Antiviral activity of congeners,[1],did not demonstrate an antiviral activity
"Nc1ncnc2c1ncn2[C@@H]1O[C@H](CO)[C@@H](O)[C@@H]1O [ara-A, 9-(beta-D-arabinofuranosyl)-adenine, reference compound]",Antiviral activity,[14],marked antiviral activity but only for some DNA viruses
same,Virus yield,[8]; [16],2.1 log10 PFU/ml
same,Virus yield,[8]; [17],4.0 log10 PFU/ml
same,Virus yield,[8]; [18],5.0 log10 PFU/ml
same,Decrease in absorbance at 265 nm (extent of deamination),[11]; 50 nmol of ara-A,0.11
same,Decrease in absorbance at 265 nm (extent of deamination),[11]; 100 nmol of ara-A,0.16
"NC(=O)c1ncn([C@@H]2O[C@H](CO)[C@@H](O)[C@H]2O)n1 [ribavirin, (1-beta-D-ribofuranosyl)-1,2,4-triazole-3-carboxamide]",Antiviral activity,[14],broad-spectrum antiviral activity
same,Safety margin,[15]; known from literature,rather narrow safety margin
same,Toxicity,[15]; known,high toxicity
